# Reference: the supplement of paper PMC10307832
# Experiments:
# Test in all cases: relative viability (nuclei count vs DMSO), 5 days (fraction); higher = more cells survive
# 201T = tested on: 201T
# Method in brief: (§1)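 Lung cancer cell lines in 1536-well plates were dosed by pin tool the day after seeding, either with one drug alone or with a fixed anchor-drug dose plus five library-drug doses (not always all listed) in √10 steps. After 5 days, cells were fixed and their nuclei stained in one step (final 0.05% Triton X-100, 1% formaldehyde, 1 ug/ml Hoechst), then counted on 4× images. Relative viability is the nuclei count in treated wells divided by that in vehicle wells. Values are medians of duplicate plates.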
# BEN = tested on: BEN
# Method in brief: as §1
# COR-L 105 = tested on: COR-L 105
# Method in brief: as §1
# EKVX = tested on: EKVX
# Method in brief: as §1
# EPLC-272H = tested on: EPLC-272H
# Method in brief: as §1
# H3255 = tested on: H3255
# Method in brief: as §1
# HCC-44 = tested on: HCC-44
# Method in brief: as §1
# HCC-827 = tested on: HCC-827
# Method in brief: as §1
# HOP-62 = tested on: HOP-62
# Method in brief: as §1
# LCLC-97TM1 = tested on: LCLC-97TM1
# Method in brief: as §1
# LOU-NH91 = tested on: LOU-NH91
# Method in brief: as §1
# LU99A = tested on: LU99A
# Method in brief: as §1
# NCI-H1395 = tested on: NCI-H1395
# Method in brief: as §1
# NCI-H1437 = tested on: NCI-H1437
# Method in brief: as §1
# NCI-H1666 = tested on: NCI-H1666
# Method in brief: as §1
# NCI-H1975 = tested on: NCI-H1975
# Method in brief: as §1
# NCI-H2085 = tested on: NCI-H2085
# Method in brief: as §1
# NCI-H2087 = tested on: NCI-H2087
# Method in brief: as §1
# NCI-H358 = tested on: NCI-H358
# Method in brief: as §1
# NCI-H647 = tested on: NCI-H647
# Method in brief: as §1
# PC-3 [JPC-3] = tested on: PC-3 [JPC-3]
# Method in brief: as §1
# SW 1573 = tested on: SW 1573
# Method in brief: as §1
smiles,measurement,setting,value
NC(=O)Nc1cc(-c2cccc(F)c2)sc1C(=O)N[C@H]1CCCNC1 [AZD7762] + CS(=O)(=O)N1CCN(Cc2cc3nc(-c4cccc5[nH]ncc45)nc(N4CCOCC4)c3s2)CC1 [Pictilisib] (partner 1 µM),relative viability,201T; first compound 0.01 µM,0.707
same,relative viability,201T; first compound 0.03162 µM,0.689
same,relative viability,201T; first compound 0.1 µM,0.668
same,relative viability,201T; first compound 0.3162 µM,0.65
same,relative viability,201T; first compound 1 µM,0.738
same,relative viability,BEN; first compound 0.01 µM,0.713
same,relative viability,BEN; first compound 0.03162 µM,0.689
same,relative viability,BEN; first compound 0.1 µM,0.537
same,relative viability,BEN; first compound 0.3162 µM,0.539
same,relative viability,BEN; first compound 1 µM,0.41
same,relative viability,COR-L 105; first compound 0.01 µM,0.486
same,relative viability,COR-L 105; first compound 0.03162 µM,0.365
same,relative viability,COR-L 105; first compound 0.1 µM,0.31
same,relative viability,COR-L 105; first compound 0.3162 µM,0.353
same,relative viability,COR-L 105; first compound 1 µM,0.242
same,relative viability,EKVX; first compound 0.01 µM,0.459
same,relative viability,EKVX; first compound 0.03162 µM,0.451
same,relative viability,EKVX; first compound 0.1 µM,0.462
same,relative viability,EKVX; first compound 0.3162 µM,0.327
same,relative viability,EKVX; first compound 1 µM,0.276
same,relative viability,EPLC-272H; first compound 0.01 µM,0.309
same,relative viability,EPLC-272H; first compound 0.03162 µM,0.377
same,relative viability,EPLC-272H; first compound 0.1 µM,0.291
same,relative viability,EPLC-272H; first compound 0.3162 µM,0.316
same,relative viability,EPLC-272H; first compound 1 µM,0.247
same,relative viability,H3255; first compound 0.01 µM,0.527
same,relative viability,H3255; first compound 0.03162 µM,0.448
same,relative viability,H3255; first compound 0.1 µM,0.519
same,relative viability,H3255; first compound 0.3162 µM,0.514
same,relative viability,H3255; first compound 1 µM,0.418
same,relative viability,HCC-44; first compound 0.01 µM,0.642
same,relative viability,HCC-44; first compound 0.03162 µM,0.627
same,relative viability,HCC-44; first compound 0.1 µM,0.584
same,relative viability,HCC-44; first compound 0.3162 µM,0.612
same,relative viability,HCC-44; first compound 1 µM,0.556
same,relative viability,HCC-827; first compound 0.01 µM,1.36
same,relative viability,HCC-827; first compound 0.03162 µM,0.962
same,relative viability,HCC-827; first compound 0.1 µM,1.17
same,relative viability,HCC-827; first compound 0.3162 µM,1.21
same,relative viability,HCC-827; first compound 1 µM,0.682
same,relative viability,HOP-62; first compound 0.01 µM,0.501
same,relative viability,HOP-62; first compound 0.03162 µM,0.801
same,relative viability,HOP-62; first compound 0.1 µM,0.833
same,relative viability,HOP-62; first compound 0.3162 µM,0.645
same,relative viability,HOP-62; first compound 1 µM,0.268
same,relative viability,LCLC-97TM1; first compound 0.01 µM,0.201
same,relative viability,LCLC-97TM1; first compound 0.03162 µM,0.201
same,relative viability,LCLC-97TM1; first compound 0.1 µM,0.277
same,relative viability,LCLC-97TM1; first compound 0.3162 µM,0.216
same,relative viability,LCLC-97TM1; first compound 1 µM,0.152
same,relative viability,LOU-NH91; first compound 0.01 µM,0.546
same,relative viability,LOU-NH91; first compound 0.03162 µM,0.555
same,relative viability,LOU-NH91; first compound 0.1 µM,0.473
same,relative viability,LOU-NH91; first compound 0.3162 µM,0.489
same,relative viability,LOU-NH91; first compound 1 µM,0.595
same,relative viability,LU99A; first compound 0.01 µM,0.381
same,relative viability,LU99A; first compound 0.03162 µM,0.331
same,relative viability,LU99A; first compound 0.1 µM,0.324
same,relative viability,LU99A; first compound 0.3162 µM,0.319
same,relative viability,LU99A; first compound 1 µM,0.207
same,relative viability,NCI-H1395; first compound 0.01 µM,0.663
same,relative viability,NCI-H1395; first compound 0.03162 µM,0.643
same,relative viability,NCI-H1395; first compound 0.1 µM,0.674
same,relative viability,NCI-H1395; first compound 0.3162 µM,0.514
same,relative viability,NCI-H1395; first compound 1 µM,0.403
same,relative viability,NCI-H1437; first compound 0.01 µM,0.501
same,relative viability,NCI-H1437; first compound 0.03162 µM,0.442
same,relative viability,NCI-H1437; first compound 0.1 µM,0.483
same,relative viability,NCI-H1437; first compound 0.3162 µM,0.555
same,relative viability,NCI-H1437; first compound 1 µM,0.477
same,relative viability,NCI-H1666; first compound 0.01 µM,0.603
same,relative viability,NCI-H1666; first compound 0.03162 µM,0.407
same,relative viability,NCI-H1666; first compound 0.1 µM,0.55
same,relative viability,NCI-H1666; first compound 0.3162 µM,0.589
same,relative viability,NCI-H1666; first compound 1 µM,0.411
same,relative viability,NCI-H1975; first compound 0.01 µM,0.334
same,relative viability,NCI-H1975; first compound 0.03162 µM,0.304
same,relative viability,NCI-H1975; first compound 0.1 µM,0.288
same,relative viability,NCI-H1975; first compound 0.3162 µM,0.235
same,relative viability,NCI-H1975; first compound 1 µM,0.194
same,relative viability,NCI-H2085; first compound 0.01 µM,0.407
same,relative viability,NCI-H2085; first compound 0.03162 µM,0.507
same,relative viability,NCI-H2085; first compound 0.1 µM,0.486
same,relative viability,NCI-H2085; first compound 0.3162 µM,0.516
same,relative viability,NCI-H2085; first compound 1 µM,0.361
same,relative viability,NCI-H2087; first compound 0.01 µM,0.982
same,relative viability,NCI-H2087; first compound 0.03162 µM,0.902
same,relative viability,NCI-H2087; first compound 0.1 µM,1.23
same,relative viability,NCI-H2087; first compound 0.3162 µM,1.31
same,relative viability,NCI-H2087; first compound 1 µM,1.09
same,relative viability,NCI-H358; first compound 0.01 µM,0.363
same,relative viability,NCI-H358; first compound 0.03162 µM,0.358
same,relative viability,NCI-H358; first compound 0.1 µM,0.35
same,relative viability,NCI-H358; first compound 0.3162 µM,0.325
same,relative viability,NCI-H358; first compound 1 µM,0.267
same,relative viability,NCI-H647; first compound 0.03162 µM,0.559
same,relative viability,NCI-H647; first compound 0.1 µM,0.427
same,relative viability,NCI-H647; first compound 0.3162 µM,0.375
same,relative viability,NCI-H647; first compound 1 µM,0.16
same,relative viability,PC-3 [JPC-3]; first compound 0.01 µM,0.774
same,relative viability,PC-3 [JPC-3]; first compound 0.03162 µM,0.793
same,relative viability,PC-3 [JPC-3]; first compound 0.1 µM,0.779
same,relative viability,PC-3 [JPC-3]; first compound 0.3162 µM,0.705
same,relative viability,PC-3 [JPC-3]; first compound 1 µM,0.448
same,relative viability,SW 1573; first compound 0.01 µM,0.569
same,relative viability,SW 1573; first compound 0.03162 µM,0.479
same,relative viability,SW 1573; first compound 0.1 µM,0.554
same,relative viability,SW 1573; first compound 0.3162 µM,0.54
same,relative viability,SW 1573; first compound 1 µM,0.451
